The experiment concerns the target PD-1/PD-L1 protein/protein interaction (Homo sapiens (Human), UniProt Q9NZQ7). Briefly: PD-1/PD-L1 Homogeneous Time-Resolved Fluorescence (HTRF) binding assay. To be noted: recombinant human PD-L1 (19-238) His-tag 10 nM, human PD-1 (25-167) Fc tag 3 nM, 25° C., PBS pH 7.4. The method, then:
Example A. PD-1/PD-L Homogeneous Time-Resolved Fluorescence (HTRF) Binding Assay
The assays were conducted in a standard black 384-well polystyrene plate with a final volume of 20 μL. Inhibitors were first serially diluted in DMSO and then added to the plate wells before the addition of other reaction components. The final concentration of DMSO in the assay was 1%. The assays were carried out at 25° C. in the PBS buffer (pH 7.4) with 0.05% Tween-20 and 0.1% BSA. Recombinant human PD-L1 protein (19-238) with a His-tag at the C-terminus was purchased from AcroBiosystems (PD1-H5229). Recombinant human PD-1 protein (25-167) with Fc tag at the C-terminus was also purchased from AcroBiosystems (PD1-H5257). PD-L1 and PD-1 proteins were diluted in the assay buffer and 10 μL was added to the plate well. Plates were centrifuged and proteins were preincubated with inhibitors for 40 minutes. The incubation was followed by the addition of 10 μL of HTRF detection buffer supplemented with Europium cryptate-labeled anti-human IgG (PerkinElmer-AD0212) specific for Fe and anti-His antibody conjugated to SureLight®-Allophycocyanin (APC, PerkinElmer-AD0059H). After centrifugation, the plate was incubated at 25° C. for 60 min. before reading on a PHERAstar FS plate reader (665 nm/620 nm ratio). Final concentrations in the assay were—3 nM PD1, 10 nM PD-L1, 1 nM europium anti-human IgG and 20 nM anti-His-Allophycocyanin.IC50 determination was performed by fitting the curve of percent control activity versus the log of the inhibitor concentration using the GraphPad Prism 5.0 software.
Sequence of PD-1/PD-L1 protein/protein interaction (Q9NZQ7 19-238): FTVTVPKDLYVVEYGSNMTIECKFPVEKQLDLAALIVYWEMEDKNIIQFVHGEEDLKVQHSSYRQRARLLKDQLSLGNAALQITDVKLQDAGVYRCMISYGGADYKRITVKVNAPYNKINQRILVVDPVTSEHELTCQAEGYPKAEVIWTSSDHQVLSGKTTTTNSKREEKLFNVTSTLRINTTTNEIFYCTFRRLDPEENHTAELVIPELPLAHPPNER
`Cc1c(-c2ccc3c(c2)OCCO3)cccc1-c1nc2cc(CNCCO)cc(C)c2o1` [Example 16, 2-[({2-[3-(2,3-dihydro-1,4-benzodioxin-6-yl)-2-methylphenyl]-7-methyl-1,3-benzoxazol-5-yl}methyl)amino]ethanol]: the IC50 is ≤ 10 nM.

As for `Cc1cc(CNCCO)cc2nc(-c3cccc(-c4ccc5c(c4)OCCO5)c3C#N)oc12` [Example 18, 2-(2,3-dihydro-1,4-benzodioxin-6-yl)-6-(5-{[(2-hydroxyethyl)amino]methyl}-7-methyl-1,3-benzoxazol-2-yl)benzonitrile], the IC50 is ≤ 10 nM. With `Cc1c(-c2ccccc2)cccc1-c1cc2nc(CNCCO)ccc2o1` [Example 21, 2-({[2-(2-methylbiphenyl-3-yl)furo[3,2-b]pyridin-5-yl]methyl}amino)ethanol] the figure was 10 to 100 nM; with `Cc1c(-c2ccccc2)cccc1-c1cc2cc(CN3CCCC[C@H]3C(=O)O)cnc2o1` [Example 9, (2S)-1-{[2-(2-methylbiphenyl-3-yl)furo[2,3-b]pyridin-5-yl]methyl}piperidine-2-carboxylic Acid], 100 to 1000 nM. Take `Cc1cc(CN2CCCC[C@H]2C(=O)O)cc2nc(-c3cccc(-c4ccccc4)c3C#N)oc12` [Example 13, (2S)-1-{[2-(2-cyanobiphenyl-3-yl)-7-methyl-1,3-benzoxazol-5-yl]methyl}piperidine-2-carboxylic Acid]: the IC50 was in the range of 10 to 100 nM. On to `Cc1c(-c2ccccc2)cccc1-c1nc2cc(CNCCO)ccc2o1` [Example 8, 2-({[2-(2-methylbiphenyl-3-yl)-1,3-benzoxazol-5-yl]methyl}amino)ethanol], for which the IC50 is ≤ 10 nM. `Cc1cc(CNCCO)cc2nc(-c3cccc(-c4ccccc4)c3C#N)oc12` [Example 14, 3-(5-{[(2-hydroxyethyl)amino]methyl}-7-methyl-1,3-benzoxazol-2-yl)biphenyl-2-carbonitrile]: the IC50 is ≤ 10 nM. With `Cc1c(C2=CCCCC2)cccc1-c1nc2cc(CNCCO)c(OCC#N)cc2o1` [Example 40, [(2-(3-cyclohex-1-en-1-yl-2-methylphenyl)-5-{[(2-hydroxyethyl)amino]methyl}-1,3-benzoxazol-6-yl)oxy]acetonitrile], the IC50 fell in the range of 10 to 100 nM. With `Cc1c(-c2ccc3c(c2)OCCO3)cccc1-c1nc2cc(CN3CCCC[C@H]3C(=O)O)c(OCC#N)cc2o1` [Example 36, (2S)-1-({6-(cyanomethoxy)-2-[3-(2,3-dihydro-1,4-benzodioxin-6-yl)-2-methylphenyl]-1,3-benzoxazol-5-yl}methyl)piperidine-2-carboxylic Acid] the figure was ≤ 10 nM.
